Measured values from US20230414626A1, “INDUCTION OF FERROPTOSIS FOR CANCER THERAPY” (Memorial Sloan Kettering Cancer Center, priority 2020, published 2023).

What was measured:
MDA-MB-453 cells = test: Cell death quantification (Sytox Green), RSL3-induced ferroptosis; type: cell-based, human; details: RSL3 1 μM, GDC-0941 2 μM, MK-2206 2 μM, Torin 1 μM, CCI-779 0.5 μM, Fatostatin A 5 μM, CAY10566 5 μM
Protocol: (§1) FIG. 1 A-D. Oncogenic activation of the PI3K-AKT-mTOR signaling pathway confers resistance to ferroptosis. (A) Genetic background of the analyzed cancer cell lines and their sensitivity to RSL3. (B) Cells were seeded in 96-well plate, 2×10^4 cells per well and incubated overnight. Cell death was induced by 24-h treatment of RSL3 with indicated concentrations. Cell death were measured by Sytox Green staining, as detailed in Methods. (C) Indicated protein components in the PI3K-AKT pathway were detected by western blot in indicated cell types. (D) Cells were treated with or without PI3K inhibitor GDC-0941 (2 μM), AKT inhibitor MK-2206 (2 μM), RSL3 (1 μM), or ferroptosis inhibitor Ferrostatin-1 (Fer-1, 1 μM) as indicated for 12 h (BT474) or 24 h (MDA-MB-453). Cell death was measured. Indicators for P values (same in all other figures): ****, P≤0.0001; *** P≤0.001; **, P≤0.01; *, P≤0.05; ns, P>0.05
(§2) FIG. 2 A-E. mTORC1, instead of mTORC2, suppresses ferroptosis. (A) MDA-MB-453 and BT474 were treated with CCI-779 (0.5 μM), RSL3 (1 μM for MDA-MB-453 cells and 0.5 μM for BT474 cells), and Fer-1 (1 μM) as indicated. (B) Cells were seeded in 6-well plate, 4×10^5 cells per well and incubated overnight. MDA-MB-453 and BT474 cells were treated as indicated. CCI-779, 0.5 μM; RSL3, 1 μM for MDA-MB-453 cells and 0.5 μM for BT474 cells; Fer-1, 1 μM. Cells were stained with 5 μM C1I-BODIPY followed by flow cytometry after 8 h-treatment. (C) 3D spheroids were treated as indicated. CCI-779, 0.5 μM; RSL3, 0.5 μM; Fer-1, 1 μM. Top panel, dead cells were stained by SYTOX Green (scale bar, 100 μm). Bottom panel, cell viability was assayed by measuring cellular ATP levels. (D) Cells expressing shRNAs targeting RPTOR or RICTOR were treated as indicated. CCI-779, 0.5 μM; RSL3, 0.5 μM; Fer-1, 1 μM. (E) Lipid peroxidation of samples as in panel D were measured.
(§3) FIG. 5 A-H. SREBP1 protects cells from ferroptosis through SCD1 activity. (A) The expression of SREBP1, and its targets SCD1, FASN, and ACACA, in control and SREBF1-sgRNA cells were detected by western blot. (B) The mRNA level of SREPF1 and its targets gene SCD were measured by RT-PCR. (C) Cells were pretreated with or without 5 μM CAY10566 overnight, and then subjected to the indicated treatments. RSL3, 0.5 μM for BT474 cells and 1 μM for MDA-MB-453 cells; CAY10566, 5 μM; Fer-1, 1 μM. (D) Cells expressing control or SCD-sgRNA were treated as indicated. RSL3, 1 μM for MDA-MB-453 cells and 0.5 μM for BT474 cells; Fer-1, 1 μM. (E) 3D spheroids derived from BT474 cells harboring control or SCD-sgRNA were treated as indicated. RSL3, 0.5 μM; CCI-779, 0.5 μM; Fer-1, 1 μM. Left, cell death staining (scale bar, 100 m). Right, cell viability. (F) SCD1 was overexpressed in BT474 cells and determined by western blot. Cells were treated as indicated. RSL3, 0.5 μM; CCI-779, 0.5 μM. (G) 3D spheroids derived from BT474 cells with control or SCD1 overexpression were treated as indicated. RSL3, 0.5 μM; CCI-779, 0.5 μM; Fer-1, 1 μM. Left, cell death staining (scale bar, 100 m). Right, cell viability. (H) Cells were treated as indicated. RSL3, 0.5 μM for BT474 and 1 μM for MDA-MB-453; CCI-779, 0.5 μM; Oleic acid (OA), 0.5 mM; stearic acid (SA), 0.5 mM.
(§4) FIG. 7 A-J. PI3K-AKT-mTOR signaling regulates ferroptosis sensitivity. (A) Cells were treated as indicated. GDC-0941, 2 μM; MK-2206, 2 μM; RSL3, 1 μM; Fer-1, 1 μM. Lipid peroxidation was measured. (B) Cells were treated with indicated conditions. Torin, 1 μM; RSL3, 1 μM for MDA-MB-453 cells and 0.5 μM for BT474 cells; Fer-1, 1 μM. Cell death was measured. (C) Cells were treated with indicated conditions. RSL3, 10 μM for MCF cells and PC-3 cells, 5 μM for T47D cells, 1 μM for HepG2 cells; Torin, 1 μM; CCI-779, 0.5 μM. (D) Cells were treated as indicated. CCI-779, 0.5 μM; Torin, 1 μM; Fer-1, 1 μM. Cell death was staining by propidium iodide (PI) (red) or Sytox Green (green) (scale bar, 100 μm). (E-F) 3D spheroids for MDA-MB-453 cells and MCF7 cells were treated as indicated. […]

BT474 cells = test: as above; type: cell-based, human; details: RSL3 0.5-1 μM, GDC-0941 2 μM, MK-2206 2 μM, Torin 1 μM, CCI-779 0.5 μM, Fatostatin A 5 μM, CAY10566 5 μM
Protocol: as §1, §2, §3, §4

| SMILES | sensitization to ferroptosis (cell death) induced by RSL3 (MDA-MB-453 cells) | sensitization to ferroptosis (cell death) induced by RSL3 (BT474 cells) |
| --- | --- | --- |
| Cc1nnc(-c2ccc(N3CCC(Oc4cc(F)ccc4Cl)CC3)nn2)o1 [CAY10566] | sensitized the effect of RSL3 | sensitized the effect of RSL3 |
| CO[C@H]1C[C@@H]2CC[C@@H](C)[C@@](O)(O2)C(=O)C(=O)N2CCCC[C@H]2C(=O)O[C@H]([C@H](C)C[C@@H]2CC[C@@H](OC(=O)C(C)(CO)CO)[C@H](OC)C2)CC(=O)[C@H](C)/C=C(\C)[C@@H](O)[C@@H](OC)C(=O)[C@H](C)C[C@H](C)/C=C/C=C/C=C/1C [CCI-779, Temsirolimus] | sensitize | sensitize |
| CCCc1cc(-c2nc(-c3ccc(C)cc3)cs2)ccn1 [Fatostatin A] | sensitized ferroptosis | sensitized ferroptosis |
| CS(=O)(=O)N1CCN(Cc2cc3nc(-c4cccc5[nH]ncc45)nc(N4CCOCC4)c3s2)CC1 [GDC-0941] | sensitized | sensitized |
| NC1(c2ccc(-c3nc4ccn5c(=O)[nH]nc5c4cc3-c3ccccc3)cc2)CCC1 [MK-2206] | sensitized | sensitized |
| CCC(=O)N1CCN(c2ccc(-n3c(=O)ccc4cnc5ccc(-c6cnc7ccccc7c6)cc5c43)cc2C(F)(F)F)CC1 [Torin] | sensitized | sensitized |
